The values below come from US6610717B2, “Dihydropyridine derivatives” (Ajinomoto Co., Inc., priority 1999, dated 2003).

For test [1], the target named is T1, N-type calcium channel (Homo sapiens, UniProt Q00975).
T1 construct: Human neuroblastoma cells IMR-32 were obtained from ATCC; host or cells: IMR-32 human neuroblastoma cells differentiated with dibutyl cAMP and bromodeoxyuridine
Description: Antagonistic activity on N-type calcium channel (fluorescence dye method), IMR-32 cells, changed procedure. The class given is cell-based. Conditions: Table 3, 60 mM KCl stimulation, calculated from the inhibition rates, read-out: N-type inhibition pIC50 (converted). As for the experimental part: (§1) Human neuroblastoma cells IMR-32 were obtained from ATCC (American Type Culture Collection). The medium used was a Phenol Red-free Eagle minimum essential medium (GIBCO) containing earle's salts supplement, 2 mM of L-glutamine (GIBCO), 1 mM of sodium pyruvate (pH 6.5) (GIBCO), antibiotic/antimicotic mixture (GIBCO) and 10% fetal calf serum (Cell Culture Technologies). 3 ml of 1×10^5/ml IMR-32 cells were spread on a glass dish (Iwaki Glass Co., Ltd.) having a diameter of 35 mm which was treated with poly-D-lysin (SIGMA) and collagen (COLLAGEN VITROGEN 100, Collagen Colo.). After the culture for 2 days, 1 mM (final concentration) of dibutyl cAMP and 2.5 μM of bromodeoxyuridine (SIGMA) were added. After the culture for additional 10 to 14 days, the cells were subjected to the activity determination. The medium for IMR-32 cells thus prepared was replaced with 1 ml of Phenol Red-free Eagle minimum essential medium (GIBCO) containing 1 ml of 10 μM fura-2/AM (Dojin Kagaku, Co.) and earle's salts supplement, and the incubation was conducted at 25° C. for 1 hour.
Then the medium was replaced with Phenol Red-free Eagle minimum essential medium (GIBCO) containing earle's salts supplement, from which fura-2/AM had been removed. After the incubation at 37° C. for 1 hour, the medium was replaced with a recording medium (20 mM of HEPES-KOH, 115 mM of NaCl, 5.4 mM of KCl, 0.8 mM of MgCl2, 1.8 mM of CaCl2 and 13.8 mM of D-glucose). Antagonistic activity on N-type calcium channel was determined and analyzed by using a fluorescence microscope (Nikon Corporation) and an image analysis device ARGUS 50 (Hamamatsu Photonics). In particular, a recording medium (20 mM of HEPES-KOH, 115 mM of NaCl, 5.4 mM of KCl, 0.8 mM of MgCl2, 1.8 mM of CaCl2 and 13.8 mM of D-glucose) containing 1 μM of Nifedipine was given to the cells by reflux by a Y-tube method. Then a stimulating agent containing 60 mM of potassium chloride was rapidly given by the Y-tube method. Thereafter stimulating agents containing 60 mM of potassium chloride and 0.1, 1 or 10 μM of test compound were successively rapidly given by the Y-tube method to determine the antagonistic activity on the channel. Finally, a stimulating agent containing 60 mM of potassium chloride and 1 μM of omega conotoxin GVIA (Peptide institute, inc.) was rapidly given by the Y-tube method to realize a condition of 100% inhibition of N-type calcium channel.
The same procedure as that of the above-described tests was repeated except for the following changes: 60 mM of potassium chloride-containing stimulating agent was rapidly given by the Y-tube method while the calcium concentration change in the cells was examined in terms of N-type calcium channel activity. […] A change in calcium concentration in the cells was determined.

For test [2], the target named is T1, N-type calcium channel. Description: Antagonistic activity on N-type calcium channel (fluorescence dye method), IMR-32 cells, in presence of 1 μM Nifedipine. The class given is cell-based. As to conditions: Table 2, 60 mM KCl stimulation, fura-2, read-out: N-type inhibition pIC50 (converted). As for the experimental part: as §1, with “The medium for IMR-32 cells thus prepared was replaced with 1 ml of Phenol Red-free Eagle minimum essential medium (GIBCO) containing 1 ml of 10 μM fura-2/AM (Dojin Kagaku, Co.) and earle's salts supplement, and the incubation was conducted at 25° C. for 1 hour.” left out
Then the medium was replaced with Phenol Red-free Eagle minimum essential medium (GIBCO) containing earle's salts supplement, from which fura-2/AM had been removed. […] Antagonistic activity on N-type calcium channel was determined and analyzed by using a fluorescence microscope (Nikon Corporation) and an image analysis device ARGUS 50 (Hamamatsu Photonics). […]

T1 sequence (Q00975 whole entry): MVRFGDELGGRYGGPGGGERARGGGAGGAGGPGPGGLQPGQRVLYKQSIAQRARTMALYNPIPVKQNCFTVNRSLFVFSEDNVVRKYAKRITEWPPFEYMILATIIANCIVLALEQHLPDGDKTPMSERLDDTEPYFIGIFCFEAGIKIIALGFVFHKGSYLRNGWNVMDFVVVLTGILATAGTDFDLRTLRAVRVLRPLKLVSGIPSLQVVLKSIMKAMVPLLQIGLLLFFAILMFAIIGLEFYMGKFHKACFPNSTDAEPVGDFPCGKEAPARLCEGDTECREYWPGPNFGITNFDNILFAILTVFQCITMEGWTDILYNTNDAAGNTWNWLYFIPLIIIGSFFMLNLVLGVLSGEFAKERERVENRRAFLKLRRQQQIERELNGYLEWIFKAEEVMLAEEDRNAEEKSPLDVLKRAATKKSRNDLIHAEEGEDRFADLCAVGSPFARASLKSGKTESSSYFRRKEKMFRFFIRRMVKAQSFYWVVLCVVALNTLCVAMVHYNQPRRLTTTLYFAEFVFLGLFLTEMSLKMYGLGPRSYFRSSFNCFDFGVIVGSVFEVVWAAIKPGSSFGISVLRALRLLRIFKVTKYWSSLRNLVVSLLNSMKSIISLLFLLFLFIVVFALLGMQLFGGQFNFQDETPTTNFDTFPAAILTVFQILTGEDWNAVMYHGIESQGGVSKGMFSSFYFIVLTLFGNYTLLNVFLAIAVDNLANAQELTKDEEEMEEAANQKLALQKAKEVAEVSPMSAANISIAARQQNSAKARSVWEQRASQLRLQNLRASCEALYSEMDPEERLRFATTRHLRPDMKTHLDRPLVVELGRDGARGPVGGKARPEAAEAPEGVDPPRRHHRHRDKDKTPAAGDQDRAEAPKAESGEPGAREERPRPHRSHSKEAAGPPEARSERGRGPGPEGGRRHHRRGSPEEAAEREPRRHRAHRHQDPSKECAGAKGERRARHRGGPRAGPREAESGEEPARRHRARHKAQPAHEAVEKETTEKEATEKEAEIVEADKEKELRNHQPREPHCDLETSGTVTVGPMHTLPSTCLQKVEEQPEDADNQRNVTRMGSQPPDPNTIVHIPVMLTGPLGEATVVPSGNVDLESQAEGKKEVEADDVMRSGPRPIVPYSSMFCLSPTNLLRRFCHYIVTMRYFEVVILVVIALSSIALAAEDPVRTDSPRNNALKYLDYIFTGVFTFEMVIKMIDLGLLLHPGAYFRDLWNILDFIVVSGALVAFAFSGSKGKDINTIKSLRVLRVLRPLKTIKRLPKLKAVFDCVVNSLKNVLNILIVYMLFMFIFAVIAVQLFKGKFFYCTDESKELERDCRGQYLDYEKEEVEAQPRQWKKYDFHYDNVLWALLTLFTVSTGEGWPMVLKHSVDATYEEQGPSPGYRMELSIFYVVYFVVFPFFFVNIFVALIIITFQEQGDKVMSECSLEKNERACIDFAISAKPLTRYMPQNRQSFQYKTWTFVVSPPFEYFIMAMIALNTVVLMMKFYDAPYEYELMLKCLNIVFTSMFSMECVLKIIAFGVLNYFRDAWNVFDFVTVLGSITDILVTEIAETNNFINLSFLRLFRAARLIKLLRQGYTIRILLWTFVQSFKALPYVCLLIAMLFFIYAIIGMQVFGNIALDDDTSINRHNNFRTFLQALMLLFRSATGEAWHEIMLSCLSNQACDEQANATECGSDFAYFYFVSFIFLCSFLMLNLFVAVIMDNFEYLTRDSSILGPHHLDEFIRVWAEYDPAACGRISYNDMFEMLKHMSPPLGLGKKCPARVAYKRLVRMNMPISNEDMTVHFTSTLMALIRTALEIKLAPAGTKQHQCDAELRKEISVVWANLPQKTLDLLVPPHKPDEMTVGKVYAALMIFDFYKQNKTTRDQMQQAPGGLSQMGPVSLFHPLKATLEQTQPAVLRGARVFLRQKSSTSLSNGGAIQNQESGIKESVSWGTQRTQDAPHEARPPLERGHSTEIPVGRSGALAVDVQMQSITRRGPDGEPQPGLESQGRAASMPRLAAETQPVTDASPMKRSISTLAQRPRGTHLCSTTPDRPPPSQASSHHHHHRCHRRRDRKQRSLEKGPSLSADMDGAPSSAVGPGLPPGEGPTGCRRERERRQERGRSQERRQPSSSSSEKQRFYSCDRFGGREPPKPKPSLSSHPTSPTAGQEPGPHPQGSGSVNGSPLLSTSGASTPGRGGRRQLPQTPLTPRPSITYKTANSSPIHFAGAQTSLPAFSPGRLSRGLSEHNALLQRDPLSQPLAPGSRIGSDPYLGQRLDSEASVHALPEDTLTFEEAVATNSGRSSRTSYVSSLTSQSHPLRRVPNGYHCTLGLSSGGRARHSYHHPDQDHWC
T1 sequence (P54289 25-956 partner limits assumed): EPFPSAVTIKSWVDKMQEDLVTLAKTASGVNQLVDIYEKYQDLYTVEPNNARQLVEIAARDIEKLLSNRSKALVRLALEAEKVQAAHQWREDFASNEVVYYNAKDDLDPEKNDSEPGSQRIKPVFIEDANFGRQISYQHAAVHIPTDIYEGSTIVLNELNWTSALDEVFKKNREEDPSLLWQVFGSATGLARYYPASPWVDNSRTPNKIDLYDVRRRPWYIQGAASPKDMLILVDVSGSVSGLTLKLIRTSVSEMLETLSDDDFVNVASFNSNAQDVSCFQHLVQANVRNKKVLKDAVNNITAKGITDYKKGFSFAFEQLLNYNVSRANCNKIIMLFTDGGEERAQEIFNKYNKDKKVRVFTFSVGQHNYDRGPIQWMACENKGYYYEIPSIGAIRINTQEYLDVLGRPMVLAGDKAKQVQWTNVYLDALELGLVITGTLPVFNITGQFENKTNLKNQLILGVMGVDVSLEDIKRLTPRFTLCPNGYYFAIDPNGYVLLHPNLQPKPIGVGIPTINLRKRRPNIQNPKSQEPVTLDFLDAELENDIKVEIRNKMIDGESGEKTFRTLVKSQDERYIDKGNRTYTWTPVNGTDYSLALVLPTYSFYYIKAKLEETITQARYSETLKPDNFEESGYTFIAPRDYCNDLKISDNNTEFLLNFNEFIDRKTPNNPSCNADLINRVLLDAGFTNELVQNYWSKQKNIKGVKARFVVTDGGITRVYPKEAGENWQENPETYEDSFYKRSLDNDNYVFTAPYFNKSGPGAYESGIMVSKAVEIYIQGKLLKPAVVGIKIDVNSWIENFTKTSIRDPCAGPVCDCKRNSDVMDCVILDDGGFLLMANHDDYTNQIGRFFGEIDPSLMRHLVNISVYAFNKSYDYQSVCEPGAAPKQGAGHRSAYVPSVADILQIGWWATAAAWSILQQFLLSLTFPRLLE
T1 sequence (P54289 957-1103 partner limits assumed): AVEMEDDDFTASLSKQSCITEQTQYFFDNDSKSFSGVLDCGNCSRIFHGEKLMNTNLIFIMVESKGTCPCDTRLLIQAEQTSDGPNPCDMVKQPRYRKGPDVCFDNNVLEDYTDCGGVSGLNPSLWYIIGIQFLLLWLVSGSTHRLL
T1 sequence (P54284 whole entry partner): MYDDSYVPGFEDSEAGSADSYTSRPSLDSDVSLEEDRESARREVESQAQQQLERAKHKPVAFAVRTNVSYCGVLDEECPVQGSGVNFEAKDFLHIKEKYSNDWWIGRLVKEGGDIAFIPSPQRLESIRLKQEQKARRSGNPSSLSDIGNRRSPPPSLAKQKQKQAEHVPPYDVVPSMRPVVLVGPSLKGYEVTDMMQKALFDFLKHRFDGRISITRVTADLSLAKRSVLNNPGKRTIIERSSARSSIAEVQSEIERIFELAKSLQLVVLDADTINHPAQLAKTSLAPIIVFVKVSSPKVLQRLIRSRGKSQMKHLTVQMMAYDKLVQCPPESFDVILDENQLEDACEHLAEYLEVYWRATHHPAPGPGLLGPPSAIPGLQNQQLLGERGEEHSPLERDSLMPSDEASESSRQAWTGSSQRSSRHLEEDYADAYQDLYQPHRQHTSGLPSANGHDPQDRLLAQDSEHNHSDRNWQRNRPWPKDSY

With `CC1=C(C(=O)O)C(c2cccc(Cl)c2)C(C(=O)NCCC(c2ccccc2)c2ccccc2)=C(COCCc2ccccn2)N1` (stereo not drawn) [Example 6, 4-(3-chlorophenyl)-5-(3,3-diphenylpropylcarbamoyl)-2-methyl-6-(2-(pyridine-2-yl)ethoxy)methyl-1,4-dihydropyridine-3-carboxylic acid], the IC50 at N-type calcium channel [1] is 2.51 µM.

As to `CC1=C(C(=O)O)C(c2cccc(Cl)c2)C(C(=O)NC/C=C/c2ccccc2)=C(COCCC2CCCCC2)N1` (stereo not drawn) [Example 4, 4-(3-chlorophenyl)-6-(2-cyclohexylethoxymethyl)-2-methyl-5-(3-phenyl-2-propene-1-ylcarbamoyl)-1,4-dihydropyridine-3-carboxylic acid], the IC50 on N-type calcium channel [2] was 0.398 µM; on N-type calcium channel [1] it was 0.794 µM.

Turning to `CC1=C(C(=O)O)C(c2cccc(Cl)c2)C(C(=O)NC/C=C/c2ccccc2)=C(COCCc2ccccc2)N1` (stereo not drawn) [Example 3, 4-(3-chlorophenyl)-2-methyl-6-(2-phenylethoxymethyl)-5-(3-phenyl-2-propene-1-ylcarbamoyl)-1,4-dihydro-pyridine-3-carboxylic acid], the IC50 at N-type calcium channel [2] was 2 µM; on N-type calcium channel [1], 2.51 µM.

As for `COCC1=C(C(=O)OC)C(c2cccc(Cl)c2)C(C(=O)NCCC(c2ccccc2)c2ccccc2)=C(COCCN)N1` (stereo not drawn) [Example 11, Methyl 6-(2-aminoethoxy)methyl-4-(3-chlorophenyl)-5-(3,3-diphenylpropylcarbamoyl)-2-methoxymethyl-1,4-dihydropyridine-3-carboxylate], the IC50 on N-type calcium channel [1] is 2 µM.
